Reference: PubChem BioAssay (NCI)
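96-well plates; 48 h exposure; 5 concentrations. Endpoints by linear interpolation between flanking doses. Not reached: highest tested concentration assigned. GI50 marks 50% less growth. TGI: total growth inhibition.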

What was measured:
Assay in all cases: growth of human tumour cells (NCI), 48 h
SN12C renal = system: SN12C renal
NCI-H522 lung = system: NCI-H522 lung
T-47D breast = system: T-47D breast
A549 NSCLC = system: A549 NSCLC
MOLT-4 leukemia = system: MOLT-4 leukemia
SR leukemia = system: SR leukemia
HOP-62 NSCLC = system: HOP-62 NSCLC
MCF7 breast = system: MCF7 breast
HL-60(TB) leukemia = system: HL-60(TB) leukemia
SNB-19 CNS = system: SNB-19 CNS
ACHN renal = system: ACHN renal
U251 CNS = system: U251 CNS
HOP-92 NSCLC = system: HOP-92 NSCLC
SW-620 colon = system: SW-620 colon
OVCAR-3 ovarian = system: OVCAR-3 ovarian
A498 renal = system: A498 renal
SF-539 CNS = system: SF-539 CNS
OVCAR-5 ovarian = system: OVCAR-5 ovarian
HCT-15 colon = system: HCT-15 colon
MDA-MB-231 breast = system: MDA-MB-231 breast
EKVX NSCLC = system: EKVX NSCLC
HT29 colon = system: HT29 colon
IGROV1 ovarian = system: IGROV1 ovarian
CCRF-CEM leukemia = system: CCRF-CEM leukemia
HCC-2998 colon = system: HCC-2998 colon
SK-MEL-28 melanoma = system: SK-MEL-28 melanoma
SF-295 CNS = system: SF-295 CNS
M14 melanoma = system: M14 melanoma
786-0 renal = system: 786-0 renal
SNB-75 CNS = system: SNB-75 CNS
MALME-3M melanoma = system: MALME-3M melanoma
HCT-116 colon = system: HCT-116 colon
UO-31 renal = system: UO-31 renal
CAKI-1 renal = system: CAKI-1 renal
TK-10 renal = system: TK-10 renal
HS 578T breast = system: HS 578T breast
PC-3 prostate = system: PC-3 prostate
KM12 colon = system: KM12 colon
NCI/ADR-RES ovarian = system: NCI/ADR-RES ovarian
UACC-62 melanoma = system: UACC-62 melanoma
SK-MEL-5 melanoma = system: SK-MEL-5 melanoma
K-562 leukemia = system: K-562 leukemia
MDA-MB-435 = system: MDA-MB-435
SK-MEL-2 melanoma = system: SK-MEL-2 melanoma
LOX IMVI melanoma = system: LOX IMVI melanoma
SK-OV-3 ovarian = system: SK-OV-3 ovarian
NCI-H226 lung = system: NCI-H226 lung
COLO 205 colon = system: COLO 205 colon
SF-268 CNS = system: SF-268 CNS
OVCAR-4 ovarian = system: OVCAR-4 ovarian
NCI-H460 lung = system: NCI-H460 lung
RPMI-8226 leukemia = system: RPMI-8226 leukemia
NCI-H23 lung = system: NCI-H23 lung

COc1cc(-n2cc(-c3ccccc3)[nH]c2=O)cc(OC)c1OC
GI50 (SN12C renal): 47.6 µM | TGI (SN12C renal): > 100 µM | GI50 (NCI-H522 lung): 27.2 µM | TGI (NCI-H522 lung): > 100 µM | GI50 (T-47D breast): 30.5 µM | TGI (T-47D breast): > 100 µM | GI50 (A549 NSCLC): 38.9 µM | TGI (A549 NSCLC): > 100 µM | GI50 (MOLT-4 leukemia): > 100 µM | TGI (MOLT-4 leukemia): > 100 µM | GI50 (SR leukemia): > 100 µM | TGI (SR leukemia): > 100 µM | GI50 (HOP-62 NSCLC): 39.1 µM | TGI (HOP-62 NSCLC): > 100 µM | GI50 (MCF7 breast): 44.9 µM | TGI (MCF7 breast): > 100 µM | GI50 (HL-60(TB) leukemia): 60.3 µM | TGI (HL-60(TB) leukemia): > 100 µM | GI50 (SNB-19 CNS): 30.9 µM | TGI (SNB-19 CNS): > 100 µM | GI50 (ACHN renal): 45.5 µM | TGI (ACHN renal): > 100 µM | GI50 (U251 CNS): 41.3 µM | TGI (U251 CNS): > 100 µM | GI50 (HOP-92 NSCLC): 20.6 µM | TGI (HOP-92 NSCLC): 83.1 µM | GI50 (SW-620 colon): > 100 µM | TGI (SW-620 colon): > 100 µM | GI50 (OVCAR-3 ovarian): 23.2 µM | TGI (OVCAR-3 ovarian): > 100 µM | GI50 (A498 renal): 35.1 µM | TGI (A498 renal): > 100 µM | GI50 (SF-539 CNS): 21.5 µM | TGI (SF-539 CNS): 63.8 µM | GI50 (OVCAR-5 ovarian): > 100 µM | TGI (OVCAR-5 ovarian): > 100 µM | GI50 (HCT-15 colon): 85.2 µM | TGI (HCT-15 colon): > 100 µM | GI50 (MDA-MB-231 breast): 37.2 µM | TGI (MDA-MB-231 breast): > 100 µM | GI50 (EKVX NSCLC): 25.4 µM | TGI (EKVX NSCLC): > 100 µM | GI50 (HT29 colon): > 100 µM | TGI (HT29 colon): > 100 µM | GI50 (IGROV1 ovarian): > 100 µM | TGI (IGROV1 ovarian): > 100 µM | GI50 (CCRF-CEM leukemia): > 100 µM | TGI (CCRF-CEM leukemia): > 100 µM | GI50 (HCC-2998 colon): > 100 µM | TGI (HCC-2998 colon): > 100 µM | GI50 (SK-MEL-28 melanoma): 31.4 µM | TGI (SK-MEL-28 melanoma): > 100 µM | GI50 (SF-295 CNS): 37.8 µM | TGI (SF-295 CNS): > 100 µM | GI50 (M14 melanoma): > 100 µM | TGI (M14 melanoma): > 100 µM | GI50 (786-0 renal): 23.7 µM | TGI (786-0 renal): 91.1 µM | GI50 (SNB-75 CNS): 13.9 µM | TGI (SNB-75 CNS): 34 µM | GI50 (MALME-3M melanoma): 33.7 µM | TGI (MALME-3M melanoma): > 100 µM | GI50 (HCT-116 colon): 58.1 µM | TGI (HCT-116 colon): > 100 µM | GI50 (UO-31 renal): 37.9 µM | TGI (UO-31 renal): > 100 µM | GI50 (CAKI-1 renal): 37.8 µM | TGI (CAKI-1 renal): > 100 µM | GI50 (TK-10 renal): 39.6 µM | TGI (TK-10 renal): > 100 µM | GI50 (HS 578T breast): 29.8 µM | TGI (HS 578T breast): 85.4 µM | GI50 (PC-3 prostate): 40 µM | TGI (PC-3 prostate): > 100 µM | GI50 (KM12 colon): > 100 µM | TGI (KM12 colon): > 100 µM | GI50 (NCI/ADR-RES ovarian): 33 µM | TGI (NCI/ADR-RES ovarian): > 100 µM | GI50 (UACC-62 melanoma): 36.9 µM | TGI (UACC-62 melanoma): > 100 µM | GI50 (SK-MEL-5 melanoma): 39.4 µM | TGI (SK-MEL-5 melanoma): > 100 µM | GI50 (K-562 leukemia): 83.9 µM | TGI (K-562 leukemia): > 100 µM | GI50 (MDA-MB-435): 76.3 µM | TGI (MDA-MB-435): > 100 µM | GI50 (SK-MEL-2 melanoma): > 100 µM | TGI (SK-MEL-2 melanoma): > 100 µM | GI50 (LOX IMVI melanoma): > 100 µM | TGI (LOX IMVI melanoma): > 100 µM | GI50 (SK-OV-3 ovarian): 34.3 µM | TGI (SK-OV-3 ovarian): > 100 µM | GI50 (NCI-H226 lung): 57.4 µM | TGI (NCI-H226 lung): > 100 µM | GI50 (COLO 205 colon): > 100 µM | TGI (COLO 205 colon): > 100 µM | GI50 (SF-268 CNS): 28.5 µM | TGI (SF-268 CNS): 89.7 µM | GI50 (OVCAR-4 ovarian): 17.1 µM | TGI (OVCAR-4 ovarian): 52.8 µM | GI50 (NCI-H460 lung): 52.2 µM | TGI (NCI-H460 lung): > 100 µM | GI50 (RPMI-8226 leukemia): > 100 µM | TGI (RPMI-8226 leukemia): > 100 µM | GI50 (NCI-H23 lung): > 100 µM | TGI (NCI-H23 lung): > 100 µM
